Test results as given in patent publication US5624894A, “Brain-enhanced delivery of neuroactive peptides by sequential metabolism” (University of Florida, priority 1995, dated 1997).
Values joined by “and” are separate entries in the source; they are usually repeats but may differ in a detail not shown here. Equal values may be shown once. Square brackets hold non-standard residues; d marks the D form. Peptide text beside a SMILES is read from it. * marks the point of attachment. O(cholesteryl) = CC(C)CCC[C@@H](C)[C@H]1CC[C@H]2[C@@H]3CC=C4C[C@@H](O*)CC[C@]4(C)[C@H]3CC[C@]12C; Nicotinoyl(1-Me-1,4-dihydro) = CN1C=CCC(C(=O)*)=C1

Experiments:
Sprague-Dawley rats = assay: Rat tail flick test (analgesia) after i.v. administration; type: in vivo; set-up: Area under the latency change vs. time curve, AUC0-240 min: unit not given here; conditions: for Tail flick latency period / Maximum tail flick latency: cutoff 60 s; for Tail flick latency period / Maximum tail flick latency / Area under the latency change vs. time curve, AUC0-240 min: mean ± S.E.; for Number of Animals with maximum tail flick latency >60 seconds: cutoff latency 60 seconds; for analgesic effect in tail flick test (in words): i.v., compared to control
Description: Sprague-Dawley rats weighing 200-250 g were used. Drugs were dissolved in the vehicle consisting of DMSO, ethanol and 50% (w/w) 2-hydroxypropyl-β-cyclodextrin at a ratio of 1:2:1. A-CDS at a dose of 5 or 10 mg/2 ml/kg was injected in the animals through the tail vein. Vehicle only, or an equimolar dose (5 mg/kg) of DADLE (equimolar to 10 mg/kg of A-CDS) was also administered to compare the pharmacological activities. Tail flick latency, an index of spinal cord mediated analgesia, was measured before (control) and at 5 minutes, 15 minutes, 30 minutes, 1 hour, 2 hours, 3 hours, 4 hours, 5 hours and 6 hours after drug administration. The instrument used was a model 33 tail flick analgesia meter (lite, Inc., Landing, N.J.) set with the beam dial at 90 and the sensitivity at 8. Time between presentation of a focused beam of light and the reflexive removal of the tail from the stimulus was defined as the tail flick latency period, and the tail flick latency difference between each time point and control was defined as the change in tail flick latency. In the absence of response, a cut-off period of 1 minute was used. Each drug at each dose was tested in ten animals. Results are presented in Tables 5-8 below and in FIGS. 3-5.
Another representative chemical delivery system (AA-CDS) of the invention for the enkephalin analog DADLE, namely compound (69) of EXAMPLE 69, which has an alanine-alanine spacer, was studied in the same rat tail flick test procedure described above to determine its analgesic effects compared to DADLE itself. AA-CDS was tested at a dose of 10 mg/2 ml/kg, which is equimolar to 5 mg/kg of DADLE, and compared with vehicle and 5mg/kg of DADLE exactly as described above. Each dose was tested in ten animals.

Swiss Webster mice = assay: Methohexital (barbiturate)-induced sleeping time in mice after i.v. injection; type: in vivo; conditions: Table 1 experiment, CDS 30 mg/kg i.v., mice; for methohexital induced sleeping time, individual animals / methohexital induced sleeping time, mean: methohexital 90 mg/kg i.p. 10 min later
Text: Two representative chemical delivery systems (CDS's) of the invention for the TRH analog [Leu^2 ]-TRH, i.e., compound (8) of Scheme I/EXAMPLE 8, which has an alanine spacer, and compound (12) of Scheme II/Example 12, which has an alanine-alanine spacer, were studied for their effects on the barbiturate-induced sleeping time in mice. TRH is known to antagonize the reduction in cholinergic activity induced by barbiturates. Thus, the activational effects of the CDS's for TRH analogs on cholinergic neurons can be measured by quantitating the antagonism of pentobarbital-induced sleeping and barbiturate-induced reduction in cholinergic neuronal activity.
Swiss Webster mice weighing 30±2 g were used. The compounds were dissolved in a vehicle consisting of DMSO, ethanol and 50% (w/w) 2-hydroxypropyl-β-cyclodextrin at a ratio of 1:2:1 (15 mg/ml). CDS's at a dose of 30 mg/kg were injected in the animals through the tail vein. Vehicle only and an equimolar dose of TRH and [Leu^2 ]-TRH, 10 mg/kg, were also administered to compare CNS activities. Ten minutes after i.v. injection of the compound, each animal received an intraperitoneal injection of sodium methohexital solution (45 mg/ml) at a dose of 90 mg/kg. The sleeping time was recorded as the time elapsed from the onset of loss of the […] until the reflex was regained. Each compound and the vehicle control were tested on 5-11 animals. The statistical analysis was performed using the Student's t test.

[1] = 10 mg/kg i.v., 0 min (prior to drug administration)
[2] = 5 mg/kg i.v., 0 min (prior to drug administration)

Structure (SMILES) | Number of Animals with maximum tail flick latency 20-40 seconds (Sprague-Dawley rats; 10 mg/kg i.v.) | Number of Animals with maximum tail flick latency 40-60 seconds (Sprague-Dawley rats; 10 mg/kg i.v.) | Number of Animals with maximum tail flick latency <20 seconds (Sprague-Dawley rats; 10 mg/kg i.v.) | Tail flick latency period (Sprague-Dawley rats; [1]) [s] | Tail flick latency period (Sprague-Dawley rats; 10 mg/kg i.v., 5 min) [s] | Tail flick latency period (Sprague-Dawley rats; 10 mg/kg i.v., 15 min) [s] | Tail flick latency period (Sprague-Dawley rats; 10 mg/kg i.v., 30 min) [s] | Tail flick latency period (Sprague-Dawley rats; 10 mg/kg i.v., 60 min) [s] | Tail flick latency period (Sprague-Dawley rats; 10 mg/kg i.v., 120 min) [s] | Tail flick latency period (Sprague-Dawley rats; 10 mg/kg i.v., 180 min) [s] | Tail flick latency period (Sprague-Dawley rats; 10 mg/kg i.v., 240 min) [s] | Tail flick latency period (Sprague-Dawley rats; 10 mg/kg i.v., 300 min) [s] | Maximum tail flick latency (Sprague-Dawley rats; 10 mg/kg i.v.) [s] | Number of Animals with maximum tail flick latency >60 seconds (Sprague-Dawley rats; 10 mg/kg i.v.) | Area under the latency change vs. time curve, AUC0-240 min (Sprague-Dawley rats; 10 mg/kg i.v.) | analgesic effect in tail flick test (in words) (Sprague-Dawley rats) | methohexital induced sleeping time, individual animals (Swiss Webster mice) | methohexital induced sleeping time, mean (Swiss Webster mice) [min] | No. of Death (Swiss Webster mice) | Number of Animals with maximum tail flick latency 20-40 seconds (Sprague-Dawley rats; 5 mg/kg i.v.) | also measured
CC(C)CCC[C@@H](C)[C@H]1CC[C@H]2[C@@H]3CC=C4C[C@@H](OC(=O)[C@@H](CC(C)C)NC(=O)[C@H](Cc5ccccc5)NC(=O)CNC(=O)[C@@H](C)NC(=O)[C@H](Cc5ccc(O)cc5)NC(=O)[C@H](C)NC(=O)[C@H](C)NC(=O)C5=CN(C)C=CC5)CC[C@]4(C)[C@H]3CC[C@]12C [Compound (69), 1,4Dihydrotrigonellyl-Ala-Ala-Tyr-D-Ala-Gly-Phe-D-Leu-Cholesteryl Ester] ({Nicotinoyl(1-Me-1,4-dihydro)}-AAY[dA]GF[dL]-{O(cholesteryl)}) | 2 | 2 | 3 | 8.47 ± 0.76 | 29.78 ± 5.99 | 20.24 ± 5.07 | 20.41 ± 5.42 | 13.77 ± 2.01 | 11.81 ± 0.99 | 15.94 ± 1.89 | 13.99 ± 0.95 | 18.43 ± 4.52 | 34.27 ± 6.20 | 2 | 1639.67 ± 266.61 | produced a significant analgesic effect | – | – | – | – | –
CC(C)CCC[C@@H](C)[C@H]1CC[C@H]2[C@@H]3CC=C4C[C@@H](OC(=O)CNC(=O)[C@@H]5CCCN5C(=O)[C@H](CC(C)C)NC(=O)[C@H](CCC(N)=O)NC(=O)[C@H](C)NC(=O)C5=CN(C)C=CC5)CC[C@]4(C)[C@H]3CC[C@]12C [Compound (8), 1.4-Dihydrotrigonellyl-Ala-Gln-Leu-Pro-Gly-Cholesteryl Ester] ({Nicotinoyl(1-Me-1,4-dihydro)}-AQLPG-{O(cholesteryl)}) | – | – | – | – | – | – | – | – | – | – | – | – | – | – | – | – | 18.23 min and 15.33 min and 11.90 min and 17.27 min and 46.07 min and 18.58 min and 15.73 min and 34.43 min and 16.15 min | 21.52 | 2 | – | –
CC(C)CCC[C@@H](C)[C@H]1CC[C@H]2[C@@H]3CC=C4C[C@@H](OC(=O)CNC(=O)[C@@H]5CCCN5C(=O)[C@H](CC(C)C)NC(=O)[C@H](CCC(N)=O)NC(=O)[C@H](C)NC(=O)[C@H](C)NC(=O)C5=CN(C)C=CC5)CC[C@]4(C)[C@H]3CC[C@]12C [Compound (12), 1,4-Dihydrotrigonellyl-Ala-Ala-Gln-Leu-Pro-Gly-Cholesteryl Ester] ({Nicotinoyl(1-Me-1,4-dihydro)}-AAQLPG-{O(cholesteryl)}) | – | – | – | – | – | – | – | – | – | – | – | – | – | – | – | – | 12.08 min and 17.18 min and 27.05 min and 10.07 min and 16.40 min and 19.00 min and 8.13 min and 15.38 min and 17.93 min and 9.45 min | 15.27 | 1 | – | –
CC(C)C[C@@H](NC(=O)[C@H](Cc1ccccc1)NC(=O)CNC(=O)[C@@H](C)NC(=O)[C@@H](N)Cc1ccc(O)cc1)C(=O)O [DADLE, H-Tyr-D-Ala-Gly-Phe-D-Leu-OH, reference compound] | – | – | – | – | – | – | – | – | – | – | – | – | – | – | – | – | – | – | – | 3 | Number of Animals with maximum tail flick latency 40-60 seconds (Sprague-Dawley rats; 5 mg/kg i.v.): 0; Number of Animals with maximum tail flick latency <20 seconds (Sprague-Dawley rats; 5 mg/kg i.v.): 7; Tail flick latency period (Sprague-Dawley rats; [2]): 7.97 ± 0.60 s; Tail flick latency period (Sprague-Dawley rats; 5 mg/kg i.v., 5 min): 12.15 ± 1.53 s; Tail flick latency period (Sprague-Dawley rats; 5 mg/kg i.v., 15 min): 12.67 ± 1.18 s; Tail flick latency period (Sprague-Dawley rats; 5 mg/kg i.v., 30 min): 12.66 ± 1.70 s; Tail flick latency period (Sprague-Dawley rats; 5 mg/kg i.v., 60 min): 15.75 ± 3.03 s; Tail flick latency period (Sprague-Dawley rats; 5 mg/kg i.v., 120 min): 10.11 ± 1.29 s; Tail flick latency period (Sprague-Dawley rats; 5 mg/kg i.v., 180 min): 10.94 ± 1.65 s; Tail flick latency period (Sprague-Dawley rats; 5 mg/kg i.v., 240 min): 10.64 ± 1.68 s; Tail flick latency period (Sprague-Dawley rats; 5 mg/kg i.v., 300 min): 10.02 ± 1.08 s; Maximum tail flick latency (Sprague-Dawley rats; 5 mg/kg i.v.): 19.68 ± 2.42 s; Number of Animals with maximum tail flick latency >60 seconds (Sprague-Dawley rats; 5 mg/kg i.v.): 0; Area under the latency change vs. time curve, AUC0-240 min (Sprague-Dawley rats; 5 mg/kg i.v.): 775.58 ± 273.20
CC(C)CCC[C@@H](C)[C@H]1CC[C@H]2[C@@H]3CC=C4C[C@@H](OC(=O)[C@@H](CC(C)C)NC(=O)[C@H](Cc5ccccc5)NC(=O)CNC(=O)[C@@H](C)NC(=O)[C@H](Cc5ccc(O)cc5)NC(=O)[C@H](C)NC(=O)C5=CN(C)C=CC5)CC[C@]4(C)[C@H]3CC[C@]12C [Compound (64), 1,4-Dihydrotrigonellyl-Ala-Tyr-D-Ala-Gly-Phe-D-Leu-Cholesteryl Ester] ({Nicotinoyl(1-Me-1,4-dihydro)}-AY[dA]GF[dL]-{O(cholesteryl)}) | 1 | 3 | 0 | 9.21 ± 0.53 | 49.67 ± 4.67 | 40.71 ± 7.00 | 36.03 ± 6.34 | 32.59 ± 6.63 | 26.28 ± 4.56 | 28.50 ± 4.40 | 28.30 ± 4.68 | 30.15 ± 3.81 | 51.94 ± 3.83 | 6 | 4897.80 ± 1011.63 | significant and prolonged increase in the latency of the tail-flick response | – | – | – | 2 | Number of Animals with maximum tail flick latency 40-60 seconds (Sprague-Dawley rats; 5 mg/kg i.v.): 2; Number of Animals with maximum tail flick latency <20 seconds (Sprague-Dawley rats; 5 mg/kg i.v.): 4; Tail flick latency period (Sprague-Dawley rats; [2]): 7.24 ± 0.58 s; Tail flick latency period (Sprague-Dawley rats; 5 mg/kg i.v., 5 min): 25.95 ± 5.64 s; Tail flick latency period (Sprague-Dawley rats; 5 mg/kg i.v., 15 min): 20.63 ± 5.40 s; Tail flick latency period (Sprague-Dawley rats; 5 mg/kg i.v., 30 min): 14.22 ± 2.22 s; Tail flick latency period (Sprague-Dawley rats; 5 mg/kg i.v., 60 min): 13.00 ± 1.97 s; Tail flick latency period (Sprague-Dawley rats; 5 mg/kg i.v., 120 min): 18.37 ± 5.10 s; Tail flick latency period (Sprague-Dawley rats; 5 mg/kg i.v., 180 min): 16.63 ± 2.02 s; Tail flick latency period (Sprague-Dawley rats; 5 mg/kg i.v., 240 min): 20.28 ± 5.58 s; Tail flick latency period (Sprague-Dawley rats; 5 mg/kg i.v., 300 min): 17.84 ± 3.42 s; Maximum tail flick latency (Sprague-Dawley rats; 5 mg/kg i.v.): 33.05 ± 5.99 s; Number of Animals with maximum tail flick latency >60 seconds (Sprague-Dawley rats; 5 mg/kg i.v.): 2; Area under the latency change vs. time curve, AUC0-240 min (Sprague-Dawley rats; 5 mg/kg i.v.): 2528.70 ± 663.78
